Structures are written as SMILES.

The target in one experiment is T1, Cathepsin K (Homo sapiens, UniProt P43235).
T1 sequence (P43235 whole entry): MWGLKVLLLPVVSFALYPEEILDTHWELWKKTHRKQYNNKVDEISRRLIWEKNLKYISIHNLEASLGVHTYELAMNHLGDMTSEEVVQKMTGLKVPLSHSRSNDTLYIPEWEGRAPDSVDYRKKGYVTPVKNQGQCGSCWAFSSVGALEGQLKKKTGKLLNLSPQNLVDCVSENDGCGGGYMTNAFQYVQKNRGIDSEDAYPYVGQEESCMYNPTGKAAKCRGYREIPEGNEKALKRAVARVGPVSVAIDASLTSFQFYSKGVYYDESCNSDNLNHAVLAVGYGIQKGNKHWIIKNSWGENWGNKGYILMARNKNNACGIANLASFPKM
In words: In vitro inhibitory activity against human cathepsin K, using 2 uM of Z -Leu-Arg-AMC as substrate.

The next experiment concerns the target Cathepsin S (Homo sapiens, UniProt P25774). As to the kind of experiment: In vitro inhibitory activity against human cathepsin S, using 2 uM of Z -Leu-Arg-AMC as substrate.
A further experiment addresses Cathepsin B (Homo sapiens, UniProt P07858). As to the kind of experiment: In vitro inhibitory activity against human cathepsin B, using 2 uM of Z -Leu-Arg-AMC as substrate.
The next experiment deals with Procathepsin L (Homo sapiens, UniProt P07711). In words: In vitro inhibitory activity against human cathepsin L, using 2 uM of Z -Leu-Arg-AMC as substrate.
Procathepsin L, sequence (P07711 whole entry): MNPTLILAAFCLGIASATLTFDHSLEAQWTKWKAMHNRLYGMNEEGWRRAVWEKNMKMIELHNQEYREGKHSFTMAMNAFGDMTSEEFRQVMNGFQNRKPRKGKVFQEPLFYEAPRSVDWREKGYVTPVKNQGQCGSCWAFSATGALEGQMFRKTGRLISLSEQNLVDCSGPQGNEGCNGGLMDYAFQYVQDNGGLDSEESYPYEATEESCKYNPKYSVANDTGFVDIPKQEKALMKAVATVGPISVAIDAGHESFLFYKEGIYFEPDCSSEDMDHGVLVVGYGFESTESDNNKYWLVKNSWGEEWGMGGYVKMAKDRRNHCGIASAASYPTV
A further experiment is filed under the species Bos taurus. In words: cells.

Cathepsin S, sequence (P25774 whole entry): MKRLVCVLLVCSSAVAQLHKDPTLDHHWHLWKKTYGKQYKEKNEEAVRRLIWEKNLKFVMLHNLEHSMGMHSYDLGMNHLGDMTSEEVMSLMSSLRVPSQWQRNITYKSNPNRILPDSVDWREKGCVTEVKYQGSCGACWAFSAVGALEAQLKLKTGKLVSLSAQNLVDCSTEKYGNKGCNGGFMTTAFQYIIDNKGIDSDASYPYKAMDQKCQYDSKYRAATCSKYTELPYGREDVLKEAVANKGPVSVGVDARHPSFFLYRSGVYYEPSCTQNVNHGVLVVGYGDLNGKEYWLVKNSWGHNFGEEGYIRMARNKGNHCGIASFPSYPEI
Description for Bos taurus: In vitro Bone resorption; measuring degradation of bovine bone by isolated osteoclasts

For `CC(C)C[C@H](C(=O)NCC#N)c1cccc(-c2ccc3[nH]ccc3c2)c1`, the midpoint of inhibition at Cathepsin K, the IC50, lay at 79 nM.
With `CC(C)CC(C(=O)NCC#N)c1cccc(-c2ccc(N3CCN(C(=O)OC(C)(C)C)CC3)cc2)c1` (stereo unspecified), the IC50 (as a rule, the concentration needed to halve the response being measured) against Cathepsin S was 1300 nM; on Cathepsin K, 922 nM; against Cathepsin B, > 10000 nM; at Procathepsin L, > 10000 nM.
For the molecule `CC(C)CC(C(=O)NCC#N)c1cccc(-c2ccc(C3CNCCO3)cc2)c1` (stereo unspecified), the IC50 at Cathepsin S is 3370 nM; on Cathepsin K it was 614 nM; against Cathepsin B, > 10000 nM; on Procathepsin L, 919 nM; in the experiment filed under Bos taurus it was 2810 nM.
In the case of `CC(C)CC(C(=O)NCC#N)c1cccc(-c2ccc(-c3ccncc3)cc2)c1` (stereo unspecified), the concentration for half-maximal inhibition (IC50) was determined as 1360 nM on Cathepsin S; 97 nM against Cathepsin K; 3330 nM at Cathepsin B; 8390 nM at Procathepsin L; 1240 nM in the experiment filed under Bos taurus.
`CC(C)CC(C(=O)NCC#N)c1cccc(-c2ccc(C3CNCCN3)cc2)c1` (stereo in doubt; 44): the IC50 against Cathepsin S was found to be 521 nM; at Cathepsin K, 58 nM; against Cathepsin B it was 1250 nM; against Procathepsin L, 338 nM.
For `CC(C)C[C@@H](C(=O)NCC#N)c1cccc(-c2ccc(N3CCN(C)CC3)cc2)c1`, the IC50 against Cathepsin S worked out at 3930 nM; against Cathepsin K, 6 nM; on Cathepsin B, 2600 nM; at Procathepsin L it was 6270 nM; in the experiment listed under Bos taurus, 96 nM.
With `CC(C)CC(C(=O)NCC#N)c1cccc(-c2ccc(N3CCOCC3)cc2)c1` (stereo unspecified), the IC50 against Cathepsin S is 9420 nM; against Cathepsin K, 638 nM; at Cathepsin B, 1740 nM; at Procathepsin L, 1590 nM.
In the case of `CC(C)CC(C(=O)NCC#N)c1cccc(-c2ccc3[nH]ccc3c2)c1` (racemic), the IC50 at Cathepsin S is 922 nM; against Cathepsin K, 52 nM; against Cathepsin B it was > 10000 nM; against Procathepsin L, > 10000 nM; in the experiment listed under Bos taurus it was 249 nM.
With `CC(C)CC(C(=O)NCC#N)c1cccc(-c2cncnc2)c1` (stereo unspecified), the IC50 against Cathepsin S is > 10000 nM; on Cathepsin K, 1040 nM; on Cathepsin B it was > 10000 nM; against Procathepsin L it was > 10000 nM.
Consider `CC(C)CC(C(=O)NCC#N)c1cccc(-c2ccc(N3CCN(CC(C)(C)O)CC3)cc2)c1` (stereo unspecified), for which the half-maximal inhibitory concentration (IC50) was > 10000 nM at Cathepsin S; 6 nM on Cathepsin K; 6370 nM on Cathepsin B; 9550 nM at Procathepsin L; 142 nM in the experiment listed under Bos taurus.
For `CC(C)CC(C(=O)NCC#N)c1cccc(-c2ccc(C3=CCNCC3)cc2)c1` (stereo unspecified) the same measures were 652 nM, 57 nM, 554 nM, 1680 nM and 267 nM.
Consider `CC(C)CC(C(=O)NCC#N)c1cccc(-c2ccccn2)c1` (stereo unspecified), for which the half-inhibitory concentration (IC50) was > 10000 nM at Cathepsin S, 488 nM at Cathepsin K, > 10000 nM against Cathepsin B and 5580 nM on Procathepsin L.
Regarding `CN1CCN(c2ccc(-c3cccc(C(CC4CCC4)C(=O)NCC#N)c3)cc2)CC1` (stereo unspecified), the IC50 against Cathepsin S is 2310 nM; on Cathepsin K it was 62 nM; on Cathepsin B, 8050 nM; against Procathepsin L it was > 10000 nM.
For `CC(C)CC(C(=O)NCC#N)c1cccc(-c2ccc(S(C)(=O)=O)cc2)c1` (stereo unspecified) the same measures were 6620 nM, 1230 nM, > 10000 nM and > 10000 nM.
For the molecule `CC(C)CC(C(=O)NCC#N)c1cccc(-c2cccnc2)c1` (stereo unspecified), the IC50 against Cathepsin S was 8040 nM; at Cathepsin K, 803 nM; against Cathepsin B, > 10000 nM; on Procathepsin L, 5950 nM.
Consider `CC(C)CC(C(=O)NCC#N)c1cccc(-c2ccc(N3CCN(C(C)(C)C)CC3)cc2)c1` (stereo unspecified), for which the 50% inhibitory concentration (IC50) against Cathepsin S was found to be 8340 nM; on Cathepsin K, 20 nM; on Cathepsin B, 379 nM; at Procathepsin L it was 1670 nM; in the experiment filed under Bos taurus it was 340 nM.
In the case of `CC(C)CC(NC(=O)c1ccccc1)C(=O)NCC#N` (stereo unspecified), the values for the IC50 at Cathepsin S, against Cathepsin K and against Cathepsin B were 41 nM, 51 nM and 1900 nM, respectively.
In the case of `CC(C)CC(C(=O)NCC#N)c1cccc(-c2ccc3cc[nH]c3c2)c1` (stereo unspecified), the 50% inhibitory concentration (IC50) against Cathepsin S is 1260 nM; against Cathepsin K, 291 nM; against Cathepsin B, > 10000 nM; in the experiment listed under Bos taurus, 2780 nM.
As for `CN1CCN(c2ccc(-c3cccc(C(Cc4ccccc4)C(=O)NCC#N)c3)cc2)CC1` (stereo unspecified), the IC50 against Cathepsin S is > 10000 nM; at Cathepsin K it was 1400 nM; at Cathepsin B it was > 10000 nM; against Procathepsin L, 3910 nM.
In the case of `CC(C)C[C@@H](C(=O)NCC#N)c1cccc(-c2ccc3[nH]ccc3c2)c1`, the 50% inhibitory concentration (IC50) against Cathepsin K was 8 nM.
Consider `CN1CCN(c2ccc(-c3cccc(C(CC4CC4)C(=O)NCC#N)c3)cc2)CC1` (stereo unspecified), for which the IC50 against Cathepsin S was 6600 nM; against Cathepsin K, 65 nM; against Cathepsin B it was 3430 nM; on Procathepsin L, > 10000 nM.
For `CC(C)CC(C(=O)NCC#N)c1csc(-c2ccccc2)n1` (stereo unspecified) the same measures were > 10000 nM, 1460 nM, > 10000 nM and > 10000 nM.
For `CC(C)CC(C(=O)N(CC#N)OC(=O)C(F)(F)F)c1cccc(-c2ccncc2)c1` (stereo unspecified) the same measures were 1750 nM, 150 nM, > 10000 nM and 5780 nM.
For `CC(C)CC(C(=O)NCC#N)c1cccc(-c2ccc(N3CCN(CCO)CC3)cc2)c1` (stereo unspecified) the same measures were 609 nM, 12 nM, 3340 nM and 140 nM.
Consider `CC(C)CC(C(=O)NCC#N)c1cccc(-c2ccc(N3CCN(CC(C)(C)N)CC3)cc2)c1` (stereo unspecified), for which the half-maximal inhibitory concentration (IC50) against Cathepsin S is 1430 nM; against Cathepsin K, 16 nM; at Cathepsin B, > 10000 nM; at Procathepsin L, > 10000 nM; in the experiment filed under Bos taurus it was 552 nM.
For the molecule `CN1CCN(c2ccc(-c3cccc(CC(=O)NCC#N)c3)cc2)CC1`, the 50% inhibitory concentration (IC50) at Cathepsin S, at Cathepsin K, at Cathepsin B and on Procathepsin L was > 10000 nM throughout.
On to `CC(C)CC(C(=O)NCC#N)c1cccc(-c2ccc(C3CNCCN3)cc2)c1` (stereo in doubt; 43), for which the IC50 against Cathepsin S was > 10000 nM; at Cathepsin K it was 216 nM; on Cathepsin B it was > 10000 nM; on Procathepsin L, > 10000 nM; in the experiment listed under Bos taurus, 4870 nM.
Regarding `CCCC(C(=O)NCC#N)c1cccc(-c2ccc(N3CCN(C)CC3)cc2)c1` (stereo unspecified), the half-inhibitory concentration (IC50) is > 10000 nM against Cathepsin S, 87 nM against Cathepsin K, > 10000 nM on Cathepsin B and > 10000 nM against Procathepsin L.
For the molecule `CC(C)CC(C(=O)NCC#N)c1cccc(-c2ccccc2)c1` (stereo unspecified), the IC50 was 1580 nM against Cathepsin S; 56 nM on Cathepsin K; > 10000 nM at Cathepsin B; 498 nM against Procathepsin L; 3560 nM in the experiment filed under Bos taurus.
For `CC(C)CC(C(=O)NCC#N)c1cccc(-c2ccc(C(N)=O)cc2)c1` (stereo unspecified), the IC50 on Cathepsin S was 1370 nM; on Cathepsin K, 1020 nM; against Cathepsin B, > 10000 nM; at Procathepsin L, > 10000 nM.
Regarding `CC(C)CC(C(=O)NCC#N)c1cccc(-c2ccc(N3CCNCC3)cc2)c1` (racemic), the 50% inhibitory concentration (IC50) amounted to 1240 nM at Cathepsin S; 9 nM on Cathepsin K; 2410 nM against Cathepsin B; 4800 nM at Procathepsin L; 162 nM in the experiment filed under Bos taurus.
Take `CC(C)CC(C(=O)NCC#N)c1ccc(-c2ccccc2)cc1` (stereo unspecified): the half-inhibitory concentration (IC50) on Cathepsin S is 3340 nM; against Cathepsin K, 790 nM; on Cathepsin B, > 10000 nM; at Procathepsin L, > 10000 nM.
With `CC(C)CC(C(=O)NCC#N)c1cccc(-c2ccc(C34CCN(CC3)CC4)cc2)c1` (stereo unspecified), the 50% inhibitory concentration (IC50) on Cathepsin S is 1990 nM; on Cathepsin K, 37 nM; at Cathepsin B it was 2230 nM; on Procathepsin L, 2240 nM; in the experiment filed under Bos taurus, 198 nM.
Turning to `CC(C)CC(C(=O)NCC#N)c1cccc(-c2ccc(C3CCNCC3)cc2)c1` (stereo unspecified), the IC50 at Cathepsin S was determined as 1420 nM; against Cathepsin K it was 18 nM; at Cathepsin B, 1080 nM; against Procathepsin L, 2750 nM; in the experiment listed under Bos taurus, 489 nM.
For `CC(C)CC(C(=O)NCC#N)c1cncc(-c2ccccc2)c1` (stereo unspecified) the same measures were > 10000 nM, 142 nM, > 10000 nM, 825 nM and 1400 nM.
For `CC(C)C[C@@H](C(=O)NCC#N)c1cccc(-c2ccc(N3CCNCC3)cc2)c1` the same measures were 2010 nM, 3 nM, 3950 nM, 3720 nM and 95 nM.
For `CC(C)CC(C(=O)NCC#N)c1cccc(-c2ccc(N3CCN(C)CC3)cc2)c1` (racemic) the same measures were 1690 nM, 8 nM, 3840 nM, 4640 nM and 78 nM.
Consider `CC[C@H](C)CC(C(=O)NCC#N)c1cccc(-c2ccc(N3CCN(C)CC3)cc2)c1` (stereo partly specified), for which the IC50 was > 10000 nM against Cathepsin S, 51 nM against Cathepsin K, 5790 nM at Cathepsin B and > 10000 nM against Procathepsin L.
`CC(=O)CN1CCN(c2ccc(-c3cccc(C(CC(C)C)C(=O)NCC#N)c3)cc2)CC1` (stereo unspecified): the IC50 at Cathepsin S came out at 2360 nM; against Cathepsin K, 10 nM; on Cathepsin B, 550 nM; against Procathepsin L it was 2160 nM; in the experiment filed under Bos taurus it was 121 nM.

For the origin of these results see ChEMBL document CHEMBL1145055, “A novel class of nonpeptidic biaryl inhibitors of human cathepsin K” (J Med Chem, 2003).
